Experiment [1] has as its system 6C3HED lymphosarcoma. In kind it is in vivo. As to conditions: tumor mass vs control on day 11. As to the method: On day zero, 2 mm^2 trocar fragments of 6C3HED lymphosarcoma were implanted subcutaneously in the axillary region into groups of six C3H/He female mice. Starting on day 1, the test compound was administered intraperitoneally in 40% Encapsin given once daily for nine days. Control animals received identical treatment without test compound. The percentage inhibition given in Table 4 below was calculated by comparing the mass of the control tumors (receiving diluent only) on day 11 to those of animals receiving test compound.

The target in experiment [2] is catalytic domain of the human GARFT (Homo sapiens, UniProt P22102). In words: biochemical.
catalytic domain of the human GARFT, sequence (P22102 810-1010 limits assumed): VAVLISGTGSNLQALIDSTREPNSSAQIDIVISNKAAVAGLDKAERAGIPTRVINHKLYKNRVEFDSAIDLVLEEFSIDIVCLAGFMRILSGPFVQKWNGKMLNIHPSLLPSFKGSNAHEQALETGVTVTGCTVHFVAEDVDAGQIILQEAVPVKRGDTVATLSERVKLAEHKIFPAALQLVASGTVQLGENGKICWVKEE
Experimental: The GAR-transformylase (GARFT) assay method of Young et al., Biochemistry 23 (1984), 3979-3986, was modified and used as described below. Reactions mixtures contained the catalytic domain of the human GARFT, 0-250 nM of Compound 1, 20 µM glycinamide ribonucleotide (GAR), 10 or 20 µM N^10-formyl-5,8-dideazafolate (FDDF), 50 mM HEPES-KOH, pH 7.5, and 50 mM KCl. The reaction was initiated with the addition of enzyme to a final concentration of 11 nM, followed by monitoring of the increase in absorbance at 294 nm at 20°C (e294 = 18.9 mM^-1 cm^-1).
The GARFT inhibition constant (Ki) was determined from the dependence of the steady-state catalytic rate on inhibitor and substrate concentration. […] The Michaelis constant for FDDF, Km, was determined independently by the dependence of the catalytic rate on FDDF concentration. Data for both the Km and Ki determinations were fitted by nonlinear methods to the Michaelis equation, or the Michaelis equation for competitive inhibition, as appropriate. Data resulting from tight-binding inhibition was analyzed, and Ki determined, by fitting the data to the tight-binding equation of Morrison, Biochem Biophys Acta 185 (1969), 269-286, by nonlinear methods.
The test system of experiment [3] is C3H/BA mammary adenocarcinoma. The class given is in vivo. As to conditions: tumor mass vs control on day 14. As to the method:
On day zero, 2 mm^2 trocar fragments of C3H/BA mammary adenocarcinoma were implanted subcutaneously in the axillary region into groups of six C3H/He female mice. Starting on day 1, the test compound was administered intraperitoneally in 40% Encapsin given once daily for nine days. Control animals received identical treatment without test compound. The percentage of inhibition was calculated by comparing the mass of the control tumors (receiving diluent only) on day 14 to those of animals receiving test compound.

The test system of experiment [4] is L1210. In words: In vitro cell growth inhibition (MTT, modified Mosmann method), L1210. In kind it is cell-based. Particulars: Mus musculus, continuous (72-hour) exposure, mean IC50, read-out: IC50 Cell Culture L1210. As to the method: (§1) All cultures were maintained at 37°C, 5% air-CO2 in a humidified incubator.
(§2) Stock solutions of the inhibitors were prepared in 10 mM sodium bicarbonate in water and stored in 1 ml aliquots at - 20°C for cell culture experiments. Cell growth inhibition was measured by a modification of the method of Mosmann, J. Immunol. Methods 65 (1983), 55-63.
(§3) Mid-log phase cells of each cell line were diluted to 18,500 cells/ml in fresh RPMI growth medium (Mediatech, Washington, DC) supplemented with dialyzed fetal calf serum (Hyclone Laboratories Inc., Logan, UT) and then aliquotted into columns 2 through 12 of 96-well microtiter plates. Column 1 was filled with the same volume ([…]) of fresh medium, without cells, for use as a blank. The plates were then placed in a 37°C, 5% air-CO2 incubator. After 1 to 4 hours, plates were removed from the incubator followed by addition of Compound 1 at 10 x final concentration, […] in binary dilutions, to columns 12 to 4. […] The extent of metabolized MTT was measured spectrophotometrically at 540 nm on a Molecular Devices Vmax kinetic microplate reader. The concentration of drug required to reduce cell growth by 50% as measured by MTT metabolism was determined by interpolation between the O.D. (minus blank) immediately above and below 50% of control O.D. (minus blank).

The test system of experiment [5] is CCRF-CEM. As to the kind of experiment: In vitro cell growth inhibition (MTT, modified Mosmann method), CCRF-CEM. The class given is cell-based. As to conditions: Homo sapiens, continuous (72-hour) exposure per table title, Table 2 gives 5 days incubation, mean IC50, read-out: IC50 Cell CultureCCRF-CEM. On the procedure: as §1, §2, §3

SMILES strings stand for the structures. Where two headings read alike, the source gives them in different places.

By % Inhibition is commonly meant the change of the read-out against control, counted positive when it falls. Read a low % Inhibition as little suppression. A word on the Ki: it is a dissociation constant, usually derived from enzyme kinetics or from competition with a known ligand. The term IC50 denotes the concentration at which inhibition is half-maximal. For `Nc1nc2c(c(=O)[nH]1)SC(CCc1ccc(C(=O)N[C@@H](CCC(=O)O)C(=O)O)s1)CN2` (stereo partly drawn) [Compound 1, 4-[2-(2-Amino-4-oxo-4,6,7,8-tetrahydro-3H-pyrimido[5,4-6][1,4]thiazin-6-yl)-ethyl]-2,5-thienoylamino-L-glutamic acid], the “% Inhibition” value was 100% in experiment [1] (12.5 mg/kg intraperitoneally in 40% Encapsin once daily for nine days); 100% in experiment [1] (25 mg/kg intraperitoneally in 40% Encapsin once daily for nine days); “toxic” in experiment [1] (50 mg/kg intraperitoneally in 40% Encapsin once daily for nine days); 16% in experiment [3] (5 mg/kg intraperitoneally in 40% Encapsin once daily for nine days); 84% in experiment [3] (10 mg/kg intraperitoneally in 40% Encapsin once daily for nine days); 100% in experiment [3] (20 mg/kg intraperitoneally in 40% Encapsin once daily for nine days). Moreover, in experiment [2], the Ki was determined as 4.5 nM. In addition, the values for the IC50 in experiment [4] and in experiment [5] were 16 nM and 4.3 nM, respectively.
